# Assay results published in US20240417393A1, “CERTAIN 2,5-DIAZABICYCLO[4.2.0]OCTANES AS GLP-1 RECEPTOR MODULATORS” (ASTRAZENECA AB, priority 2021, published 2024).
# Assays:
# human GLP-1R receptor = biological target: T1, human GLP-1R receptor (Homo sapiens, UniProt P43220, L260F); experiment: CHOK1 GLP-1R cAMP Assay (HTRF); assay type: cell-based; conditions: CHO-K1 cells stably expressing human GLP-1R (Leu260Phe variant), 20 min at rt
# T1 construct: expressed in transfected cells; host or cells: CHO-K1 (ATCC CCL-61)
# [1] = biological target: T2, GLP-1R in a pancreatic insulinoma cell line (EndoC-PH1) (Homo sapiens, UniProt P43220); experiment: EndoC cAMP Accumulation Assay (HTRF); assay type: cell-based; conditions: EndoC-PH1 human pancreatic beta cell line, endogenous GLP-1R, 30 min at rt
# T2 construct: host or cells: EndoC-βH1 human pancreatic beta cell line
# Procedure, shortened: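 Thawed human EndoC-βH1 cells, about 3000 per well, stimulated with compound 30 min at room temperature in HBSS/HEPES pH 7.4 with 0.1% BSA and 0.5 mM IBMX; cAMP by competitive HTRF. Responses as % activation relative to maximal GIP (82.5 nM), 4-parameter logistic fit.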
# [2] = biological target: T3, human phosphodiesterase-3A (Homo sapiens, UniProt Q14432); experiment: PDE3 Assay ([3H]cAMP to 5'AMP, SPA); assay type: biochemical; conditions: human recombinant PDE3A expressed in Sf9 cells; 450 nM cAMP; 20 min at 22° C.
# T3 construct: host or cells: Sf9 (Spodoptera frugiperda) cells
# Experimental: Evaluation of the effects of compounds on the activity of the human phosphodiesterase-3A is quantified by measuring the formation of 5′AMP from cAMP using a human recombinant is enzyme expressed in a clonal isolate of Spodoptera frugiperda cells (Sf9) cells.
# The test compound, reference compound or water (control) are added to a buffer containing 40 mM tris(hydroxymethyl)aminomethane (Tris)/HCl (pH 7.4) and 8 mM MgCl2, 450 nMcAMP and 0.25 μCi [^3H]cAMP.
# Thereafter, the reaction is initiated by addition of the enzyme (about 1U) and the mixture is incubated for 20 min at 22° C.
# For basal control measurements, the enzyme is omitted from the reaction mixture.
# Following incubation SPA beads are added. After 30 min at 22° C. under shaking, the amount of [^3H]5′AMP is quantified with a scintillation counter (Topcount, Packard).
# The results are expressed as a percent inhibition of the control enzyme activity. The standard inhibitory reference compound is milrinone (CAS number 78415-72-2), which is tested in each experiment at several concentrations to obtain an inhibition curve from which its IC50 value is calculated.
# T2 sequence (P43220 24-463): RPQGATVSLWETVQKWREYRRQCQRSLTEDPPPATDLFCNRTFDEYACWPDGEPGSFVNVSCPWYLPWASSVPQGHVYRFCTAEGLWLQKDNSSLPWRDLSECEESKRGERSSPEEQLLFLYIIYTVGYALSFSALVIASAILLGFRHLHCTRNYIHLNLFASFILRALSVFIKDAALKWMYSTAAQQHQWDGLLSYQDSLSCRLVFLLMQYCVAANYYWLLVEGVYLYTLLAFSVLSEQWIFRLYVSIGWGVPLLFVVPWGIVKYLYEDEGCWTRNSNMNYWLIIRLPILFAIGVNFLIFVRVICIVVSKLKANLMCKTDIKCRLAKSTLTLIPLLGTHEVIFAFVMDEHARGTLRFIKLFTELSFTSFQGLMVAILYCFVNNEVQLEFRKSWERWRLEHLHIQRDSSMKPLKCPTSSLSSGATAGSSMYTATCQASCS
# T1 sequence (P43220 24-463 L260F): as the sequence (P43220 24-463) above, with L237F counted along it
# T3 sequence (Q14432 whole entry): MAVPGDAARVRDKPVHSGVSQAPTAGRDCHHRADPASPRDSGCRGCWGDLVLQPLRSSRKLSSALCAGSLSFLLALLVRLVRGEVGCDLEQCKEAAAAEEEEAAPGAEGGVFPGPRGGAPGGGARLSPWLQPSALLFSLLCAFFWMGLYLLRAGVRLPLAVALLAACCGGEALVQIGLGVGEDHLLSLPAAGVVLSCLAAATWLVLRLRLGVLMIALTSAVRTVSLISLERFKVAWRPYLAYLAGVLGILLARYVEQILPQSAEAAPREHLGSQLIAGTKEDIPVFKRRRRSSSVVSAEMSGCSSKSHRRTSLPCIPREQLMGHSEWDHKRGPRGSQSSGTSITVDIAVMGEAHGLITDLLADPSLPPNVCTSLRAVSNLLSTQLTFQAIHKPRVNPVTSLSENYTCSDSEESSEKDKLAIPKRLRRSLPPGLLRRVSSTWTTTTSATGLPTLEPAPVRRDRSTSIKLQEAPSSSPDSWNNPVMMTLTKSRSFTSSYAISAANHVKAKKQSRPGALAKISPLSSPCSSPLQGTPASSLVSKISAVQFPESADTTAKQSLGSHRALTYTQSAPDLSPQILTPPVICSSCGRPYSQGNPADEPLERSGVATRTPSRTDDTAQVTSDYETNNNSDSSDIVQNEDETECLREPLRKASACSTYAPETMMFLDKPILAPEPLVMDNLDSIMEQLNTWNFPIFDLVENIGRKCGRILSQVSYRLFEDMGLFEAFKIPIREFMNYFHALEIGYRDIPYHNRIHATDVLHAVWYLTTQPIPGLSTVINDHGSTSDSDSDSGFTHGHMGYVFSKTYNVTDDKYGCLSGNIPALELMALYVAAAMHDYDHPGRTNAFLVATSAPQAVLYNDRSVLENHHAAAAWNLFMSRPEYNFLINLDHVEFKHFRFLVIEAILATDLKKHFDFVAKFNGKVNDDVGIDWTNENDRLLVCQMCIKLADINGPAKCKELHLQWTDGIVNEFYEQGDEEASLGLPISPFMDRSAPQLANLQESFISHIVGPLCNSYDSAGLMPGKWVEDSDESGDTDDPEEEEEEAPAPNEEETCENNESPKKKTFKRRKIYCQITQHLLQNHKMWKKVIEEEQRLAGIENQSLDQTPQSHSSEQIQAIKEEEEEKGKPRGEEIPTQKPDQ
SMILES,EC50 (human GLP-1R receptor) [nM],EC50 [1] [nM],IC50 [2] [nM]
"C[C@]1(c2ccc(Cl)cn2)Oc2cccc(N3CCN(Cc4nc5c(F)cc(C(=O)O)cc5n4C[C@@H]4CCO4)[C@H]4CC[C@H]43)c2O1 (single isomer, unassigned) [Example 1c, 2-((1R*,6S*)-5-(R*)-2-(5-Chloropyridin-2-yl)-2-methylbenzo[d][1,3]dioxol-4-yl)-2,5-diazabicyclo[4.2.0]octan-2-yl)methyl)-4-fluoro-1-(((S)-oxetan-2-yl)methyl)-1H-benzo[d]imidazole-6-carboxylic acid]",2.2,3.2,> 100000
"C[C@]1(c2ccc(Cl)cn2)Oc2cccc(N3CCN(Cc4nc5c(F)cc(C(=O)O)cc5n4C[C@@H]4CCO4)[C@H]4CC[C@H]43)c2O1 (single isomer, unassigned) [Example 1b, 2-(((1R*,6S*)-5-((R*)-2-(5-Chloropyridin-2-yl)-2-methylbenzo[d][1,3]dioxol-4-yl)-2,5-diazabicyclo[4.2.0]octan-2-yl)methyl)-4-fluoro-1-(((S)-oxetan-2-yl)methyl)-1H-benzo[d]imidazole-6-carboxylic acid]",1.2,2.9,> 87000
"C[C@]1(c2ccc(Cl)cc2F)Oc2cccc(N3CCN(Cc4nc5c(F)cc(C(=O)O)cc5n4C[C@@H]4CCO4)[C@H]4CC[C@H]43)c2O1 (single isomer, unassigned) [Example 9b]",0.8,3.3,> 100000
"COc1cc(C(=O)O)cc2c1nc(CN1CCN(c3cccc4c3O[C@@](C)(c3ccc(Cl)cn3)O4)[C@@H]3CC[C@@H]31)n2C[C@@H]1CCO1 (single isomer, unassigned) [Example 2d, 2-((1R*,6S*)-5-(R*)-2-(5-Chloropyridin-2-yl)-2-methylbenzo[d][1,3]dioxol-4-yl)-2,5-diazabicyclo[4.2.0]octan-2-yl)methyl)-4-methoxy-1-(((S)-oxetan-2-yl)methyl)-1H-benzo[d]imidazole-6-carboxylic acid]",–,–,> 100000
"COc1cc(C(=O)O)cc2c1nc(CN1CCN(c3cccc4c3O[C@@](C)(c3ccc(Cl)cn3)O4)[C@H]3CC[C@@H]31)n2C[C@@H]1CCCO1 (single isomer, unassigned) [Example 7b, 2-(((1R*,6R*)-5-((R*)-2-(5-Chloropyridin-2-yl)-2-methylbenzo[d][1,3]dioxol-4-yl)-2,5-diazabicyclo[4.2.0]octan-2-yl)methyl)-4-methoxy-1-(((S)-tetrahydrofuran-2-yl)methyl)-1H-benzo[d]imidazole-6-carboxylic acid]",2.5,6.1,> 100000
"COc1cc(C(=O)O)cc2c1nc(CN1CCN(c3cccc4c3O[C@@](C)(c3ccc(Cl)cn3)O4)[C@@H]3CC[C@@H]31)n2C[C@@H]1CCO1 (single isomer, unassigned) [Example 2a, 2-((1R*,6S*)-5-(R*)-2-(5-Chloropyridin-2-yl)-2-methylbenzo[d][1,3]dioxol-4-yl)-2,5-diazabicyclo[4.2.0]octan-2-yl)methyl)-4-methoxy-1-(((S)-oxetan-2-yl)methyl)-1H-benzo[d]imidazole-6-carboxylic acid]",–,–,> 100000
"CCn1ccnc1Cn1c(CN2CCN(c3cccc4c3O[C@@](C)(c3ccc(Cl)cn3)O4)[C@H]3CC[C@@H]32)nc2c(Cl)cc(C(=O)O)cc21 (single isomer, unassigned) [Example 10a]",0.9,3.5,> 100000
"COc1cc(C(=O)O)cc2c1nc(CN1CCN(c3cccc4c3O[C@@](C)(c3ccc(Cl)cn3)O4)[C@@H]3CC[C@@H]31)n2C[C@@H]1CCCO1 (single isomer, unassigned) [Example 8c]",1.6,2.6,> 100000
"C[C@]1(c2ccc(Cl)cn2)Oc2cccc(N3CCN(Cc4nc5ccc(C(=O)O)cc5n4C[C@@H]4CCO4)[C@H]4CC[C@H]43)c2O1 (single isomer, unassigned) [Example 5a, 2-((1R*,6S*)-5-(R*)-2-(5-Chloropyridin-2-yl)-2-methylbenzo[d][1,3]dioxol-4-yl)-2,5-diazabicyclo[4.2.0]octan-2-yl)methyl)-1-(((S)-oxetan-2-yl)methyl)-1H-benzo[d]imidazole-6-carboxylic acid]",1.9,6.5,> 100000
"C[C@]1(c2ccc(Cl)cn2)Oc2cccc(N3CCN(Cc4nc5c(Cl)cc(C(=O)O)cc5n4C[C@@H]4CCO4)[C@@H]4CC[C@H]43)c2O1 (single isomer, unassigned) [Example 3b]",0.9,2.6,> 100000
"COc1cc(C(=O)O)cc2c1nc(CN1CCN(c3cccc4c3O[C@@](C)(c3ccc(Cl)cn3)O4)[C@H]3CC[C@@H]31)n2C[C@@H]1CCO1 (single isomer, unassigned) [Example 6a, 2-(((1R*,6R*)-5-((R*)-2-(5-Chloropyridin-2-yl)-2-methylbenzo[d][1,3]dioxol-4-yl)-2,5-diazabicyclo[4.2.0]octan-2-yl)methyl)-4-methoxy-1-(((S)-oxetan-2-yl)methyl)-1H-benzo[d]imidazole-6-carboxylic acid]",–,–,> 100000
"C[C@]1(c2ccc(Cl)cn2)Oc2cccc(N3CCN(Cc4nc5c(Cl)cc(C(=O)O)cc5n4C[C@@H]4CCO4)[C@H]4CC[C@@H]43)c2O1 (single isomer, unassigned) [Example 3c, 4-Chloro-2-(((1R*,6R*)-5-((R*)-2-(5-chloropyridin-2-yl)-2-methylbenzo[d][1,3]dioxol-4-yl)-2,5-diazabicyclo[4.2.0]octan-2-yl)methyl)-1-(((S)-oxetan-2-yl)methyl)-1H-benzo[d]imidazole-6-carboxylic acid]",11,8.8,> 100000
"C[C@]1(c2ccc(Cl)cn2)Oc2cccc(N3CCN(Cc4nc5c(Cl)cc(C(=O)O)cc5n4CC4(CC#N)CC4)[C@H]4CC[C@@H]43)c2O1 (single isomer, unassigned) [Example 26d]",10,7,–
"COc1cc(C(=O)O)cc2c1nc(CN1CCN(c3cccc4c3O[C@@](C)(c3ccc(Cl)cn3)O4)[C@H]3CC[C@@H]31)n2C[C@@H]1CCCO1 (single isomer, unassigned) [Example 7c, 2-(((1R*,6R*)-5-((R*)-2-(5-Chloropyridin-2-yl)-2-methylbenzo[d][1,3]dioxol-4-yl)-2,5-diazabicyclo[4.2.0]octan-2-yl)methyl)-4-methoxy-1-(((S)-tetrahydrofuran-2-yl)methyl)-1H-benzo[d]imidazole-6-carboxylic acid]",110,32,–
